From PubChem BioAssay (NCI) come the findings set out here.

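Following 48 hours of exposure in 96-well plates, responses at five concentrations were used to interpolate endpoints linearly. TGI: total growth inhibition.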

Among the test systems are TK-10 renal; HCT-116 colon; SNB-75 CNS; SK-MEL-2 melanoma; MALME-3M melanoma; MCF7 breast; UACC-62 melanoma; DU-145 prostate; SK-MEL-28 melanoma; UACC-257 melanoma; SK-OV-3 ovarian; SN12C renal; SNB-19 CNS.
What all share (test): NCI tumour cell line growth inhibition, 48 h

Turning to `Cc1nc2ccc(NCCN(C)C)c3c(=O)c4ccccc4n1c23`, the TGI with TK-10 renal is 38.5 µM; in the test on HCT-116 colon, 13.8 µM; in the test with SNB-75 CNS it was 17.8 µM; with SK-MEL-2 melanoma, 18.8 µM; in the test on MALME-3M melanoma it was 18.5 µM; with MCF7 breast it was 23.3 µM. The TGI in the test with UACC-62 melanoma was 20.2 µM; in the test on DU-145 prostate it was 6.87 µM; in the test with SK-MEL-28 melanoma it was 21 µM; with UACC-257 melanoma, 17.6 µM; with SK-OV-3 ovarian, 36.7 µM; in the test with SN12C renal it was 40.1 µM. For the same compound, the TGI with SNB-19 CNS came out at 47.8 µM.
On to `Cc1cccc2c(=O)c3c(O)cc(O)cc3n(C)c12`, for which the TGI in the test with TK-10 renal, with HCT-116 colon, with SNB-75 CNS, with SK-MEL-2 melanoma, with MALME-3M melanoma and with MCF7 breast was over 100 µM in each case. Further, the TGI with UACC-62 melanoma, in the test with DU-145 prostate, in the test on SK-MEL-28 melanoma, in the test on UACC-257 melanoma, in the test with SK-OV-3 ovarian and in the test with SN12C renal was over 100 µM throughout. Also, in the test on SNB-19 CNS, the TGI is over 100 µM.
Turning to `Nc1cccc(-c2cc(=O)c3cc4c(cc3[nH]2)OCO4)c1`, the TGI in the test with TK-10 renal was over 100 µM; with HCT-116 colon it was 3.62 µM; with SNB-75 CNS, over 100 µM; with SK-MEL-2 melanoma it was 5.72 µM; in the test on MALME-3M melanoma, over 100 µM; in the test on MCF7 breast, over 100 µM. Besides, the TGI in the test on UACC-62 melanoma was 11.5 µM; in the test on DU-145 prostate, over 100 µM; with SK-MEL-28 melanoma, over 100 µM; in the test on UACC-257 melanoma, over 100 µM; with SK-OV-3 ovarian, over 28.5 µM; in the test on SN12C renal it was over 100 µM. Besides, the TGI in the test with SNB-19 CNS was over 48.5 µM.
As for `O=C1c2cc3c(cc2NC(c2ccccc2F)C1O)OCO3` (stereo not given), the TGI in the test with TK-10 renal was 73.1 µM; with HCT-116 colon, over 35.7 µM; in the test on SNB-75 CNS, 56.9 µM; in the test with SK-MEL-2 melanoma, over 100 µM; with MALME-3M melanoma it was over 100 µM; in the test with MCF7 breast, over 100 µM. The TGI in the test on UACC-62 melanoma is 64 µM; in the test with DU-145 prostate, over 100 µM; in the test with SK-MEL-28 melanoma it was over 79.4 µM; in the test with UACC-257 melanoma it was over 100 µM; with SK-OV-3 ovarian, 51.1 µM; in the test with SN12C renal, over 66.9 µM. In the test on SNB-19 CNS, this compound registered a TGI of over 56.1 µM.
Consider `CC(=O)c1csc2c1C(=O)c1ccccc1C2=O`, for which the TGI with TK-10 renal stood at 4.99 µM; in the test with HCT-116 colon, 7.85 µM; in the test on SNB-75 CNS, 3.11 µM; in the test with SK-MEL-2 melanoma, 10.6 µM; in the test with MALME-3M melanoma, 1.7 µM; in the test with MCF7 breast, 5.22 µM. Besides, the TGI in the test with UACC-62 melanoma was 3.73 µM; in the test with DU-145 prostate, 3.21 µM; with SK-MEL-28 melanoma, 5.07 µM; with UACC-257 melanoma, 2.92 µM; in the test with SK-OV-3 ovarian, over 100 µM; in the test with SN12C renal, 5.86 µM. The same compound yielded a TGI in the test on SNB-19 CNS of 5.06 µM.
For `COC(=O)/C=C(C)/C=C\COC1CCCCO1` (stereo not given), the TGI in the test with TK-10 renal, in the test on HCT-116 colon, with SNB-75 CNS, with SK-MEL-2 melanoma, in the test on MALME-3M melanoma and in the test with MCF7 breast was over 100 µM each time. Also, the TGI with UACC-62 melanoma, in the test with DU-145 prostate, with SK-MEL-28 melanoma, in the test on UACC-257 melanoma, in the test on SK-OV-3 ovarian and with SN12C renal was over 100 µM in each case. Moreover, in the test with SNB-19 CNS, the TGI is over 100 µM.
On to `COC(=O)c1ccccc1CC1Cc2c(C)ccc(C)c2C1=O` (stereo not given), for which the TGI in the test on TK-10 renal was 71.2 µM; in the test on HCT-116 colon it was 56 µM; in the test on SNB-75 CNS it was over 100 µM; in the test with SK-MEL-2 melanoma, 38.4 µM; in the test on MALME-3M melanoma, 57.5 µM; in the test on MCF7 breast, 30 µM. Moreover, the TGI was over 100 µM in the test on UACC-62 melanoma; over 100 µM in the test on DU-145 prostate; over 100 µM in the test with SK-MEL-28 melanoma; 48.2 µM in the test on UACC-257 melanoma; over 100 µM in the test with SK-OV-3 ovarian; over 100 µM with SN12C renal. The compound also showed a TGI in the test on SNB-19 CNS of over 100 µM.
On to `O=C1NC(N2CCCC(CO)C2)=N/C1=C\c1cccs1` (stereo not given), for which the TGI with TK-10 renal, with HCT-116 colon, with SNB-75 CNS, with SK-MEL-2 melanoma, with MALME-3M melanoma and in the test with MCF7 breast was over 100 µM in each case. Moreover, the TGI in the test with UACC-62 melanoma, with DU-145 prostate, in the test with SK-MEL-28 melanoma, in the test on UACC-257 melanoma, in the test with SK-OV-3 ovarian and in the test on SN12C renal was over 100 µM each time. Further, the TGI with SNB-19 CNS is over 100 µM.
As to `CCOC(=O)C(C)c1nc2cc(F)c(F)cc2[nH]c1=O` (stereo not given), the TGI in the test with TK-10 renal, in the test on HCT-116 colon, in the test on SNB-75 CNS, in the test with SK-MEL-2 melanoma, in the test with MALME-3M melanoma and in the test with MCF7 breast was over 100 µM each time. Also, the TGI with UACC-62 melanoma, in the test on DU-145 prostate, in the test on SK-MEL-28 melanoma, with UACC-257 melanoma, with SK-OV-3 ovarian and in the test on SN12C renal was over 100 µM each time. The compound also had a TGI in the test with SNB-19 CNS of over 100 µM.
`Cc1ccc(/C=c2\cc3oc(=O)c4cccc(c4-3)c2=O)cc1`: the TGI with TK-10 renal, with HCT-116 colon, with SNB-75 CNS, with SK-MEL-2 melanoma, in the test with MALME-3M melanoma and in the test on MCF7 breast was over 100 µM each time. Besides, the TGI with UACC-62 melanoma, in the test with DU-145 prostate, in the test with SK-MEL-28 melanoma, in the test on UACC-257 melanoma, in the test with SK-OV-3 ovarian and in the test with SN12C renal was over 100 µM throughout. The compound further returned a TGI in the test on SNB-19 CNS of over 100 µM.
